Entries after “also recorded” stand apart in the source; their conditions may differ. Read-outs that look alike come from different tables or passages of the source. Blank lines part the entries; values can stand above or below the molecule they belong to.
Key:
human FXRα [1] = target: T1, human FXRα (Homo sapiens, UniProt Q96RI1); assay: cell-based
T1 sequence (Q96RI1 1-486): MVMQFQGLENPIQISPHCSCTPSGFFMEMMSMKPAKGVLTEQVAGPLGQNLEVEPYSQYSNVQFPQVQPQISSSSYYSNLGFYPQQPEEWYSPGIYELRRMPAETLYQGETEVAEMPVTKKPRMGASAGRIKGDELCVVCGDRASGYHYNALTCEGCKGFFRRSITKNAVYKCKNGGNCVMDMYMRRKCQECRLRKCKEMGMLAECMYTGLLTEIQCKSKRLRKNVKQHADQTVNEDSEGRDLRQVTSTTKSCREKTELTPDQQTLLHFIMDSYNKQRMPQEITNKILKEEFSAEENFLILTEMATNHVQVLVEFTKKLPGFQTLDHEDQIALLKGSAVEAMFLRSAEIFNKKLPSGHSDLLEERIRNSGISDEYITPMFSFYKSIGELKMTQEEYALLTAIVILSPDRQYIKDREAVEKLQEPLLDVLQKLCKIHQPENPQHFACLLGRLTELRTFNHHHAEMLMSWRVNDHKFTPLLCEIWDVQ
T1 sequence (P19793 1-462 partner): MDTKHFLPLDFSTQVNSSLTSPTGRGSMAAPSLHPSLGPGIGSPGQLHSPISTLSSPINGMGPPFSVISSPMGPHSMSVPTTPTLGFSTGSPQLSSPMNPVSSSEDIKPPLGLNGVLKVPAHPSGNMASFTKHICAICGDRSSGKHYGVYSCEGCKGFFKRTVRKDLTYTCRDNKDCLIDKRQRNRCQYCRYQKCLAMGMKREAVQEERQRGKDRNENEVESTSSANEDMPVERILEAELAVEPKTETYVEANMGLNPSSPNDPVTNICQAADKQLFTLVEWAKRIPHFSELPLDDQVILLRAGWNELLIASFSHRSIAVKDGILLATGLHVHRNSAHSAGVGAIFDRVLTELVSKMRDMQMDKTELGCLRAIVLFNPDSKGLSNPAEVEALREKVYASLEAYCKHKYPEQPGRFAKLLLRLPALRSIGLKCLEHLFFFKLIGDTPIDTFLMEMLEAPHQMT

medaka FXRα2 [2] = target: T2, medaka FXRα2 (Oryzias latipes, UniProt H2M6M7); assay: Transient transactivation luciferase assay in HEK293T cells, antagonist mode; format: cell-based; conditions: Antagonists, in the presence of GW4064
T2 sequence (H2M6M7 1-485): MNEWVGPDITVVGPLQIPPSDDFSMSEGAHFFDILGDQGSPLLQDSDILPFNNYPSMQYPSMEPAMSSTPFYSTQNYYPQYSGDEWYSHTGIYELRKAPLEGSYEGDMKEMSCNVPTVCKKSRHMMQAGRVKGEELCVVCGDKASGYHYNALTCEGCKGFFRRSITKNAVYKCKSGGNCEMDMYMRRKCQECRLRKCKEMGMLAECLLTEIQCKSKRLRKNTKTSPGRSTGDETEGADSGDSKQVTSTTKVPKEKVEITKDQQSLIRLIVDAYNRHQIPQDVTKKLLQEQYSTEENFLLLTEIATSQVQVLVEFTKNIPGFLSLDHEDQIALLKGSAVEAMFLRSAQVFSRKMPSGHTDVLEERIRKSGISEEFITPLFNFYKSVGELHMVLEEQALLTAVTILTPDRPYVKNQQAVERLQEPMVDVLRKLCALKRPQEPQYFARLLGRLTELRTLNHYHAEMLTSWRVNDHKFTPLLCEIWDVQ

Human FXRa [3] = conditions: Antagonists, cited from earlier work; for Tox21 Results Human FXRa Activity Human FXRa: Hsu et al. 2016; for AC50: Tox21 qHTS, ref US EPA CompTox Chemicals Dashboard
human FXRα [4] = target: T1, human FXRα; format: cell-based
medaka FXRα2 [5] = target: T2, medaka FXRα2; assay: Transient transactivation luciferase assay in HEK293T cells, agonist mode; format: cell-based
medaka larvae = assay: Toxicity to medaka larvae during in vivo exposure; set-up: species or system Medaka (Oryzias latipes); conditions: between 0.5 and 10 µM
Human FXRa [6] = conditions: Agonists, cited from earlier work
[7] = target: NR box of human PGC1α fused to the yeast Gal4 DNA-binding domain (pM-PGC1α) (human) (UniProt Q9UBK2); assay: two-hybrid
NR box of human PGC1α fused to the yeast Gal4 DNA-binding domain (pM-PGC1α) (human), sequence (Q9UBK2 whole entry, the tested form may be a part): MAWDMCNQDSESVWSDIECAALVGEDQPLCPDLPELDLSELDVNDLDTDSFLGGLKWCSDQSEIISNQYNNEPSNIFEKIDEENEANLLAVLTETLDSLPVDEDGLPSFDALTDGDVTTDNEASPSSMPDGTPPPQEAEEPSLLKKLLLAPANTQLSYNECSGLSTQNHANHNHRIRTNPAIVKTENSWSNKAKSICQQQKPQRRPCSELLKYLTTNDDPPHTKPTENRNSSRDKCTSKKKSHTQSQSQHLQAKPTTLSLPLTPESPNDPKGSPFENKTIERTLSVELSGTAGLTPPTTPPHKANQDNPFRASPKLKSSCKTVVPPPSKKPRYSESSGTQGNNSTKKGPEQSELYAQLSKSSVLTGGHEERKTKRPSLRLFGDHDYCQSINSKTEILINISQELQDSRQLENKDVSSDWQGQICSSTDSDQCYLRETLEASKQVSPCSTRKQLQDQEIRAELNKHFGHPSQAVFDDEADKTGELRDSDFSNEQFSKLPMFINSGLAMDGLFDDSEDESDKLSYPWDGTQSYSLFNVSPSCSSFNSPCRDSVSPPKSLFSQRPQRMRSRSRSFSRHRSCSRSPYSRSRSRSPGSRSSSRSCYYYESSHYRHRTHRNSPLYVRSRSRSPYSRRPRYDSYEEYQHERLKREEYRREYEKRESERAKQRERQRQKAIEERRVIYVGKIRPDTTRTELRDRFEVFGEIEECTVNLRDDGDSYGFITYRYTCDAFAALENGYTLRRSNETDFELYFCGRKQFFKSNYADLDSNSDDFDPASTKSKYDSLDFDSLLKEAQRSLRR

[8] = target: NR box of human PGC1α fused to the yeast Gal4 DNA-binding domain (pM-PGC1α) (human) (UniProt Q9UBK2); assay: two-hybrid; remark: listed apart in the source
[9] = Agonists, HEK293T, 24 h, listed as maleic hydrazide
[10] = Tox21 qHTS, ref US EPA CompTox Chemicals Dashboard
[11] = read-out: Current Study Human FXRa AC50
[12] = Agonists, HEK293T, 24 h, listed as prometon

Molecule: CO/N=C1\C[C@]2(C[C@@H]3C[C@@H](C/C=C(\C)C[C@@H](C)/C=C/C=C4\CO[C@@H]5[C@H](O)C(C)=C[C@@H](C(=O)O3)[C@]45O)O2)O[C@H](/C(C)=C/C(C)C)[C@H]1C [Moxidectin, reference compound]
AC50 (human FXRα [1]): 12.5 µM
Current Study Human FXRa Activity Human FXRa (human FXRα [1]): Active
EC50 (human FXRα [1]): 12.5 µM
Current Study Medaka FXRa2 Activity Medaka FXRa2 (medaka FXRα2 [2]): Active
Tox21 Results Human FXRa Activity Human FXRa (Human FXRa [3]; ref Tox21 dataset): Active/Inactive

Molecule: O=c1ccc(=O)[nH][nH]1 [Maleic hydrazide]
Current Study Human FXRa Activity Human FXRa (human FXRα [4]; Agonists, HEK293T, 24 h): Inactive
Current Study Human FXRa Activity Human FXRa (human FXRα [4]; [9]): confirmed inactive
Current Study Medaka FXRa2 Activity Medaka FXRa2 (medaka FXRα2 [5]; Agonists, HEK293T, 24 h): Inactive
Current Study Medaka FXRa2 Activity Medaka FXRa2 (medaka FXRα2 [5]; [9]): confirmed as inactive
cytotoxicity / toxicity to medaka larvae in agonist exposures (medaka larvae): significant cytotoxicity
Activity Decision (Human FXRa [6]; [10]): Inactive
Tox21 Results Human FXRa Activity Human FXRa (Human FXRa [6]; ref Tox21 dataset): Inactive

Molecule: c1ccc(P(c2ccccc2)c2ccccc2)cc1 [Triphenylphosphine]
cytotoxicity / toxicity to medaka larvae in agonist exposures (medaka larvae): significant cytotoxicity

Molecule: Cc1c(COC(=O)[C@@H]2[C@H](/C=C(\Cl)C(F)(F)F)C2(C)C)cccc1-c1ccccc1 (racemic) [Bifenthrin]
AC50 (human FXRα [1]): 34.6 µM
Current Study Human FXRa Activity Human FXRa (human FXRα [1]): Active
EC50 (human FXRα [1]): 34.6 µM
Current Study Medaka FXRa2 Activity Medaka FXRa2 (medaka FXRα2 [2]): exhibited antagonist activity; also recorded: Active
AC50 (Human FXRa [3]): 13.3 µM
Tox21 Results Human FXRa Activity Human FXRa (Human FXRa [3]; ref Tox21 dataset): Active
Tox21 Results Human FXRa AC50 (Human FXRa [3]; ref Tox21 dataset): 4.96 µM

Current Study Human FXRa Activity Human FXRa (human FXRα [4]): Active
AC50 (human FXRα [4]; [11]): 9.8 µM
Current Study Medaka FXRa2 Activity Medaka FXRa2 (medaka FXRα2 [5]; Agonists, HEK293T, 24 h): Active
AC50 (medaka FXRα2 [5]; read-out: Current Study Medaka FXRa2 AC50, Agonists, HEK293T, 24 h): > 100 µM
Molecule: C[C@@H]1C[C@H]2O[C@@]3(O[C@@H]2C(C)(C)O)[C@H](O)[C@@]2(C)[C@@H]4CC[C@H]5C(C)(C)[C@@H](O[C@@H]6OC[C@@H](O)[C@H](O)[C@H]6O)CC[C@@]56C[C@@]46CC[C@]2(C)[C@@H]13 [Cimicifugoside]
AC50 (Human FXRa [6]; [10]): 5 µM
Activity Decision (Human FXRa [6]; [10]): Active
Tox21 Results Human FXRa AC50 (Human FXRa [6]; ref Tox21 dataset): 5.52 µM
Tox21 Results Human FXRa Activity Human FXRa (Human FXRa [6]; ref Tox21 dataset): Active

Molecule: O=C1OC(c2ccc(O)cc2)(c2ccc(O)cc2)c2ccccc21 [Phenolphthalein]
cytotoxicity / toxicity to medaka larvae in agonist exposures (medaka larvae): significant cytotoxicity; also recorded: toxic to medaka larvae

Current Study Human FXRa Activity Human FXRa (human FXRα [1]): Inactive
Current Study Medaka FXRa2 Activity Medaka FXRa2 (medaka FXRα2 [2]): Active
Current Study Medaka FXRa2 Activity Medaka FXRa2 (medaka FXRα2 [2]; listed as tricaprylin): exhibited antagonist activity
Molecule: CCCCCCCC(=O)OCC(COC(=O)CCCCCCC)OC(=O)CCCCCCC [Tricaprylin]
Tox21 Results Human FXRa Activity Human FXRa (Human FXRa [3]; ref Tox21 dataset): Inactive

Molecule: CCC(C)(c1ccc(O)cc1)c1ccc(O)cc1 [Bisphenol B]
AC50 (human FXRα [1]): 11.9 µM
Current Study Human FXRa Activity Human FXRa (human FXRα [1]): Active
EC50 (human FXRα [1]): 11.9 µM
Current Study Medaka FXRa2 Activity Medaka FXRa2 (medaka FXRα2 [2]): Active
Current Study Medaka FXRa2 Activity Medaka FXRa2 (medaka FXRα2 [2]; listed as bisphenol B): exhibited antagonist activity
AC50 (Human FXRa [3]): 57.2 µM
Tox21 Results Human FXRa Activity Human FXRa (Human FXRa [3]; ref Tox21 dataset): Active

Molecule: COc1cc2c(c(OC)c1OC)-c1ccc(OC)c(=O)cc1[C@@H](NC(C)=O)CC2 [Colchicine, reference compound]
Current Study Human FXRa Activity Human FXRa (human FXRα [1]): Inactive
Current Study Medaka FXRa2 Activity Medaka FXRa2 (medaka FXRα2 [2]): Inactive
Tox21 Results Human FXRa Activity Human FXRa (Human FXRa [3]; ref Tox21 dataset): Inactive

Molecule: COc1nc(NC(C)C)nc(NC(C)C)n1 [Prometon]
Current Study Human FXRa Activity Human FXRa (human FXRα [4]; Agonists, HEK293T, 24 h): Inactive
Current Study Human FXRa Activity Human FXRa (human FXRα [4]; [12]): confirmed inactive
Current Study Medaka FXRa2 Activity Medaka FXRa2 (medaka FXRα2 [5]; Agonists, HEK293T, 24 h): Inactive
Current Study Medaka FXRa2 Activity Medaka FXRa2 (medaka FXRα2 [5]; [12]): confirmed as inactive
Activity Decision (Human FXRa [6]; [10]): Inactive
Tox21 Results Human FXRa Activity Human FXRa (Human FXRa [6]; ref Tox21 dataset): Inactive

EC50 (medaka FXRα2 [5]): 0.269 µM
Molecule: CC(C)c1onc(-c2c(Cl)cccc2Cl)c1COc1ccc(C=Cc2cccc(C(=O)O)c2)c(Cl)c1 [GW4064, 3-(2,6-Dichlorophenyl)-4-(3′-carboxy-2-chlorostilben-4-yl) oxymethyl-5-isopropylisoxazole, reference compound]

recruitment with moxidectin, percent (reference as for human FXRα: GW4064 alone) [7]: 126%
Molecule: VP16 activation domain fused to medaka FXRα2 (pVP16-mFXRα2) (receptor)

Molecule: Ivermectin [reference compound]
Current Study Human FXRa Activity Human FXRa (human FXRα [1]): Active
AC50 (human FXRα [1]; [11]): 2.35 µM
Current Study Medaka FXRa2 Activity Medaka FXRa2 (medaka FXRα2 [2]): Active
AC50 (medaka FXRα2 [2]; read-out: Current Study Medaka FXRa2 AC50): 11.2 µM
Tox21 Results Human FXRa Activity Human FXRa (Human FXRa [3]; ref Tox21 dataset): Active

recruitment with moxidectin and GW4064, percent of that with GW4064 alone [8]: 132%
B1: VP16 activation domain fused to full-length human FXRα (pVP16-hFXRα) (receptor)
chain: T1 sequence (Q96RI1 1-486)

Source: article PMC9637864 (Current Research in Toxicology, 2022)
